The source of these data is article PMC2972219, “Ionotropic Glutamate Receptor AMPA 1 Is Associated with Ovulation Rate” (PLoS ONE, 2010).

The target of assay [1] is GRIA1^Asn (brain membrane fraction of N/N cows). Nature of the assay: [3H]AMPA ligand binding assay, membrane fractions from brain of N/N cows. Conditions: saturation binding of [3H]AMPA 1-200 nM, n = 3. Further details: species or system bovine. The procedure: (§1) Membrane fractions were extracted from bovine brain as described previously, and 25 µg of protein were resolved by SDS-PAGE and transferred to polyvinylidene difluoride membranes. The blots were incubated with rabbit polyclonal antibody to GRIA1 (1∶1000, AB1504, Millipore, Tokyo, Japan) or actin (1∶200, A2066, Sigma-Aldrich, St. Louis, MO).
(§2) Protein (500 µg/ml) was used for a ligand binding assay with [^3H] AMPA (392.2 GBq/mmol, 1–200 nM) as described previously. Non-specific binding obtained by incubating 1 mM L- glutamate in the binding assay was subtracted from total binding to yield specific [^3H] AMPA- binding.

The target in assay [2] is GRIA1 (brain membrane fraction of S/N cows). The assay can be described thus: [3H]AMPA ligand binding assay, membrane fractions from brain of S/N cows. Set-up: species or system bovine. Conditions: saturation binding of [3H]AMPA 1-200 nM, n = 3. The procedure:
as §1, §2

For assay [3], the target named is GRIA1^Ser (brain membrane fraction of S/S cows). Nature of the assay: [3H]AMPA ligand binding assay, membrane fractions from brain of S/S cows. Set-up: species or system bovine. Conditions: saturation binding of [3H]AMPA 1-200 nM, n = 3. As for the experimental part:
as §1, §2

Another assay has as its system LH release. Set-up: method as in PMID 9331548. Conditions: infusion into the third cerebral ventricle, ovariectomized estrogen-primed adult female rats; cited from earlier work.
Assay [4] deals with GT1-7 cells expressing GRIA1^Ser. Nature of the assay: GnRH release from GT1-7 cells expressing GRIA1 (enzyme immunoassay). Conditions: 100 µM glutamate for 30 min, GT1-7 cells expressing GRIA1^Ser compared with GRIA1^Asn. Type of assay: cell-based, murine. As for the experimental part: We amplified bovine GRIA1 that had been cloned into pTracer-nucGFP with primers GRIA1InFusionF and R and then switched into pCAGGS (N-R) using the In-Fusion™ Advantage PCR Cloning Kit (Takara Bio Inc., Shiga, Japan) to produce HA-tagged protein under the control of a ubiquitous strong promoter that was based on the β-actin promoter.
GT1-7 cells were cultured in six-well dishes coated with poly-L-ornithine (BD Biocoat [PLO/LM] 354658, Becton Dickinson and Company, Franklin Lakes, NJ) with conditioned-Dulbecco's modified Eagles medium (C-MEM), which was comprised of a 1∶1 mixture of conditioned medium from mouse embryonic astrocytes in primary culture and Dulbecco's modified Eagles medium with high glucose (Invitrogen) supplemented with 10% fetal calf serum, penicillin (100 U/ml), and streptomycin (100 µg/ml). When cells reached 90 % confluence, C-MEM was replaced with Opti-MEM (Invitrogen) and transfected with Lipofectamine 2000 (Invitrogen) for 24 h.
The next day, confluent GT1-7 cells were treated as described previously. The concentration of GnRH in the media was assayed using an LH-releasing hormone enzyme immunoassay kit (S-1217, Peninsula Laboratories, LLC, San Carlos, CA) according to the manufacturer's instructions.

The subject of another assay is GRIA1^Asn with GRIA2. Nature of the assay: Whole-cell current responses in Xenopus oocytes coexpressing GRIA1^Asn with GRIA2. It counts as cell-based, bovine. Conditions: Xenopus oocytes expressing GRIA1^Asn coexpressed with GRIA2, n = 8; read-out: EC50 of current response. As for the experimental part:
(§3) Bovine GRIA1 mRNAs were synthesized using mMESSAGE mMACHINE® SP6 Kit (Applied Biosystems) and injected into Xenopus oocytes as described previously. Whole-cell current responses to 1, 3, 10, 30, 100, and 300 µM glutamate were recorded as described previously.

In another assay the target is T1, GRIA1^Asn (Bos taurus, UniProt G0T3G6, S306N).
T1 construct: expressed in transfected cells; host or cells: Xenopus oocytes (mRNA injection)
Nature of the assay: Whole-cell current responses in Xenopus oocytes injected with GRIA1^Asn mRNA. It counts as cell-based, bovine. Conditions: Xenopus oocytes expressing GRIA1^Asn alone, glutamate 1-300 µM, n = 9; read-out: EC50 of current response. As for the experimental part:
as §3

The next assay relates to GRIA1^Ser with GRIA2. Nature of the assay: Whole-cell current responses in Xenopus oocytes coexpressing GRIA1^Ser with GRIA2. It counts as cell-based, bovine. Conditions: Xenopus oocytes expressing GRIA1^Ser coexpressed with GRIA2, n = 8; read-out: EC50 of current response. As for the experimental part:
as §3

The target of the next assay is T2, GRIA1^Ser (Bos taurus, UniProt G0T3G6).
T2 construct: expressed in transfected cells; host or cells: Xenopus oocytes (mRNA injection)
Nature of the assay: Whole-cell current responses in Xenopus oocytes injected with GRIA1^Ser mRNA. Type of assay: cell-based, bovine. Conditions: Xenopus oocytes expressing GRIA1^Ser alone, glutamate 1-300 µM, n = 10; read-out: EC50 of current response. The procedure: as §3

T1 sequence (G0T3G6 19-906 S306N): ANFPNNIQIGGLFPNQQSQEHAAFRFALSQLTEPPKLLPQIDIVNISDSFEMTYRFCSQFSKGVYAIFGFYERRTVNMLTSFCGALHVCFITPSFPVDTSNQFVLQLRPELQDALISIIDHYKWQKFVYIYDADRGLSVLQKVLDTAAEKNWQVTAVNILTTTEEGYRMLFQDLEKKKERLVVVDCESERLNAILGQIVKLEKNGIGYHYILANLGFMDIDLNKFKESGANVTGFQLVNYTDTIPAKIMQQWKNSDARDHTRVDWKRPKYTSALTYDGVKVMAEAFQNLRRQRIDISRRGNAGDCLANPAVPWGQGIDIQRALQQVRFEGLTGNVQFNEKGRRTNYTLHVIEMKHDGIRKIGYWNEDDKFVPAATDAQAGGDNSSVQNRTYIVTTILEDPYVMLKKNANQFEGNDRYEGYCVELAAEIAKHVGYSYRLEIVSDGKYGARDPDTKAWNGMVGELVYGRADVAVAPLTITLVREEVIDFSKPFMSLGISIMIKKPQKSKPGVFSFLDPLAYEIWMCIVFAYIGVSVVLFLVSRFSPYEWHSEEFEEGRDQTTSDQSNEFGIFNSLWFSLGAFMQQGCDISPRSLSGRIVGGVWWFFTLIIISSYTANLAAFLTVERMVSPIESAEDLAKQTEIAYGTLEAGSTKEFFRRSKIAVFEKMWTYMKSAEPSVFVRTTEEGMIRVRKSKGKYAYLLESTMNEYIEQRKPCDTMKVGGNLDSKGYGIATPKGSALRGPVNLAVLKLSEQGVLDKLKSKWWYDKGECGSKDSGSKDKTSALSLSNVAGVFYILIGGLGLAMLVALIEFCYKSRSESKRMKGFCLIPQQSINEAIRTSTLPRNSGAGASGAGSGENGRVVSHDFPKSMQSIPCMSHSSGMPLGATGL
T2 sequence (G0T3G6 19-906): as the sequence (G0T3G6 19-906 S306N) above, with N288S counted along it

`Cc1o[nH]c(=O)c1CC(N)C(=O)O` (stereo not drawn) [AMPA]: the Kd (commonly the equilibrium constant for the complex coming apart) came to 0.0596 µM in [1], 0.0436 µM in assay [2] and 0.0277 µM in [3]. Also, the LH release entry with LH release is listed as “induces LH release”.
As to `N[C@@H](CCC(=O)O)C(=O)O` [glutamate], in assay [4], the GnRH release result is listed as “induced the release of more GnRH than that from cells expressing GRIA1^Asn”. Moreover, the 50% effective concentration (EC50) (in general, the concentration needed to bring the measured effect to its halfway point) came out at 10.4 µM in the assay with GRIA1^Asn with GRIA2, 10.7 µM on GRIA1^Asn, 4.9 µM with GRIA1^Ser with GRIA2 and 4.5 µM on GRIA1^Ser.
